Experimental findings from patent publication US6995139B2, “Cyclic undecapeptide pro-drugs and uses thereof” (Debiopharm S.A., priority 2001, dated 2006) are described below.

Where two headings read alike, the source gives them in different places. Bounds are passed on as bounds.

Data set [1] is classed as in vitro ADME. The note with it: bovine, serum.
The nature of data set [2]: in vitro. In kind it is in vitro ADME. The note with it: rabbit, cerebrospinal or other body fluid, pH 7. As for the experimental part:
This conversion kinetics test was carried out by incubating, at 37° C., 25 μl of a sample of the solution described above, with gentle stirring, with 8 μl of fresh rabbit tear. 2 μl samples were taken at intervals of 1, 2, 3 and 30 minutes, and were then analyzed by HPLC.

For data set [3] the following is noted: rat, in vivo, iv, 10 mg/kg.
Data set [4] deals with cornea. As to the kind of experiment: Confocal laser scanning opthalmoscope test (subacute ocular toxicity). The note with it: rabbit cornea, 25 μl three times a day for four days; (XV) aqueous solution, Cyclosporin A 1% in olive oil.
Description: The solutions were sterilized by passing them through 0.22 μm nitrocellulose filters.
This test was carried out on the same type of animal as previously. 25 μl of a solution as described above were instilled onto the cornea of the right eye three times a day for four days, and then once on the fourth day just before observation. After the final installation, the rabbits were sedated by administering ketamine hydrochloride and xylazine. A total of 25 μl of a solution of sodium fluorescein at 0.5% by weight/volume were instilled onto the eye in order to allow selective labeling of the surfaces possibly damaged. The eye was then rinsed for one minute with a saline solution at 37° C.
The opthalmoscope was coupled to an image analysis system in order to be able to reconstitute an image in three dimensions and to allow evaluation of the damaged areas.
A short description of data set [5]: Water-solubility by visual examination in 67 mM Sorensen phosphate buffers. In kind it is physicochemical. The note with it: 67 mM Sorensen phosphate buffer, ambient temperature.
Data set [6] has as its system esterases. The data set can be described thus: Enzymatic stability: hydrolysis in Hepes buffer in the presence of esterases. The note with it: 50 mM Hepes buffer, pH 7.4, 37° C., FIG. 1.
Description: During the incubation at 37° C., 40 μl aliquots are sampled at appropriate time periods and analyzed by HPLC and ESI-MS.
The mark [7] stands for this setting: T1/22 (terminal half-life time).

Consider `C/C=C/C[C@@H](C)[C@@H](OC(=O)CN(C)C(=O)[C@H](CCCC[N+](C)(C)C)NC(=O)OC(C)OC(C)=O)[C@H]1C(=O)N[C@@H](CC)C(=O)N(C)CC(=O)N(C)[C@@H](CC(C)C)C(=O)N[C@@H](C(C)C)C(=O)N(C)[C@@H](CC(C)C)C(=O)N[C@@H](C)C(=O)N[C@H](C)C(=O)N(C)[C@@H](CC(C)C)C(=O)N(C)[C@@H](CC(C)C)C(=O)N(C)[C@@H](C(C)C)C(=O)N1C` (stereo partly shown) [(XV), MeBmt(O-Sar-Lys(Nε^+Me3)-COOCH(CH3)OCOCH3))^1-CsA.I^−], for which the results for the half-life in data set [1], in data set [3] (T1/21 (initial half-life time)) and in data set [3] (setting [7]) were 3.66 h, 0.55 h and 11.8 h, respectively. For the same compound, in data set [2], the metabolised at 0.05 h, 0.76 % (weight/volume) Cyclosporin A equivalent stood at 3%. Besides, the AUC(0-inf) in data set [3] amounted to 66600 ng·h/mL. In addition, the MRT in data set [3] is 15.3 h. In data set [3], this compound showed a clearance of 2.5 mL/min/kg. Besides, the “CLSO, % lesions (corneal lesions)” value in data set [4] stood at 7%.

As for `C/C=C/C[C@@H](C)[C@@H](OC(=O)CN(C)C(=O)[C@H](COP(=O)(O)O)NC(=O)OC(C)OC(C)=O)[C@H]1C(=O)N[C@@H](CC)C(=O)N(C)CC(=O)N(C)[C@@H](CC(C)C)C(=O)N[C@@H](C(C)C)C(=O)N(C)[C@@H](CC(C)C)C(=O)N[C@@H](C)C(=O)N[C@H](C)C(=O)N(C)[C@@H](CC(C)C)C(=O)N(C)[C@@H](CC(C)C)C(=O)N(C)[C@@H](C(C)C)C(=O)N1C` (stereo partly shown) [(XVI), MeBmt(O-Sar-Ser(OPO(OH)2)—COOCH(CH3)OCOCH3)^1-CsA], the solubility in data set [5] (pH 5) was greater than 20 mM; in data set [5] (pH 6, read-out: Water-solubility at pH = 6), greater than 20 mM; in data set [5] (pH 7) it was greater than 20 mM; in data set [5] (pH 8, read-out: Water-solubility at pH = 8), greater than 20 mM. For the same compound, the half-life is 3.5 h in data set [1], 0.2 h in data set [3] (T1/21 (initial half-life time)) and 11.8 h in data set [3] (setting [7]). The same compound came in with an AUC(0-inf) in data set [3] of 44700 ng·h/mL. Also, the MRT in data set [3] came out at 14.9 h. Besides, in data set [3], the clearance is 3.67 mL/min/kg. In addition, the “hydrolysis in the presence of esterases (release of Cyclosporin A)” value in data set [6] is listed as “rapidly degrades to release the Cyclosporin A”.

In general, half-life refers to the time needed for the level to fall by half in the phase considered. Higher therefore signals slow loss. As a reminder, the AUC(0-inf) is total exposure, with the tail of the curve extrapolated. The MRT is the average time that molecules of a dose stay in the body. In general, clearance refers to a measure of how efficiently the substance is removed, as volume per time. A high value points to efficient removal. Usually solubility stands for how much of the substance goes into solution per volume.
